Article PMC4370505 (PLoS ONE, 2015)
Blank lines part the entries; values can stand above or below the compound they belong to.

Legend:
[1] = In vitro metabolism in rat liver microsomes with UDPA; assay type: in vitro ADME; conditions: rat liver microsomes with UGT reaction mixture, 37°C
Protocol: Incubations of test substances in reaction mixtures without microsomes were used as a control. All samples were protected against light during the experiments.

[2] = Single dose intravenous pharmacokinetic study in Wistar rats; assay type: in vivo; conditions: 10 mg/kg
Protocol: Pharmacokinetic studies were conducted with male Wistar rats. Rats were acclimatized and housed at 22°C under 12h light/dark cycle with free access to sterilized commercial food pellets and water in the animal research facility (Curtin University) for at least 3 days prior to experiments. All animal experiments were approved by the Animal Ethics Committee of Curtin University (Approval no: R37–10 Amendment Approval No: A47–10 and A56–10) and were performed according to the Australian Code of Practice for the care and use of animals for scientific purposes. In order to minimize pain and suffering, the dosing and bleeding procedures were conducted under anesthesia (isoflurane at 5% for the induction and 2% for the maintenance, in combination with 1.5% oxygen). At the end of the study, rats were scarified by anesthetic euthanasia using 5% isofluorane with 1.5% oxygen. […] Blood (300 μL) was collected from the tail vein at 0.08, 0.5, 1, 2 and 4 hours into EDTA coated tubes. The blood samples were immediately stored in ice and protected from light until centrifuged (12000 × g at 4°C for 10 min). […] Metabolites were identified using LC-MS/MS (Applied Biosystems, 4000 QTRAP, Toronto, Canada).
Data analysis and representation (mean ± SD) were performed with SigmaPlot version 12 (Systat Software, Inc., Chicago, IL). Pharmacokinetic analysis was performed using Kinetica Version 5.0 (Thermo Fisher Scientific, Inc., Waltham, MA). Non compartmental analysis of the plasma concentration-time data was used to estimate the area under the curve (AUC0-∞; log-linear trapezoidal method), elimination half-life (t½), apparent clearance (CL; Dose÷AUC0-∞), mean residence time (MRT) and volume of distribution (Vss; CL×MRT). Statistical analysis of pharmacokinetic parameters was performed using unpaired t-test with Graphpad Prism software (version 6.05). Pharmacokinetic parameters obtained for each group were analyzed against the resveratrol group and p values were reported.

[3] = cited from earlier work
[4] = design: method as in PMID 18501919; conditions: cited from earlier work
[5] = Stability of resveratrol-polymer conjugates in physiological relevant buffers; assay type: physicochemical; conditions: phosphate buffer 0.1M pH 7.4, 37°C
Protocol: Briefly, reversed phase chromatographic separation was employed for analysis with xxx column. The HPLC gradient system consisted of solvent A, buffer pH 7.0 with triethyl amine-formic acid (0.05 and 0.2% v/v in water) and solvent B, methanol. A 30 min linear gradient was programmed as follows: 0 min 5% B, 4 min 20% B, 7 min 20% B, 16 min 55% B, 18 min 55% B, 18.5 min 95% B, 23 min 95% B, 24 min 5% B. The flow rate was maintained at 1 mL/min and the injection volume was 50 μL. The HPLC analysis was performed at ambient temperature. Altech Apollo C18 150 X 4.6 mm, 5μ column was employed for seperation. This HPLC method was validated to precisely separate and quantify the trans-resveratrol in the analyte mixture. There was at least two min difference in retention times for the trans and cis isomers of resveratrol. The UV spectrum of the trans isomer is very different from the cis isomer, thus any change to the trans isomer could have been detected. Although quantification was performed using the fluorescence detector at an excitation wavelength of 320nm and emission at 400 nm, simultaneous UV chromatograms were also recorded for specificity and peak purity purposes.
A similar procedure was used to study the stability of MeO-PEG-PLAO-Succ-RSV in buffers; micelles were prepared as per section 2.8 and diluted 1:5 with buffer solutions and incubated at 37°C. […]

[6] = Stability of resveratrol-polymer conjugates in rat plasma; assay type: in vitro ADME; conditions: 37°C
Protocol: The MeO-PEGN-Succ-RSV, 2 kDa, 20 kDa and MeO-PEGO-Succ-RSV 2 kDa (MW quoted in the paper is the size of polymer only. Mw for RSV is 228 Da) at the 10 mg/mL were incubated in plasma at 37°C. […] Aliquots of plasma (0.1 mL) were withdrawn at regular intervals and mixed with acetonitrile (0.9 mL). The mixtures were centrifuged at 10,000 rpm for 5 minutes. The supernatant (0.25 mL) was diluted with water (0.25 mL) and analysed by HPLC [28]. All samples were protected against light during the experiments.

[7] = Behaviour of conjugates in aqueous solution (solubility / self-aggregation); assay type: physicochemical; conditions: up to 10 mg/mL
Protocol: A solution of 40 mg of MeO-PEG-PLAO-Succ-RSV conjugate in acetonitrile (2 mL) was prepared. The stock solution was diluted with water (4 mL). The acetonitrile was removed by bubbling inert nitrogen gas at room temperature in the dark. The final volume of micellar/nanoparticle dispersion was adjusted to the required volume with water. For pharmacokinetic studies, final concentration of conjugate in micelle dispersion was 10 mg/mL and for critical micellear concentration measurement, the dispersion was diluted accordingly to obtain a series concentration of conjugate in solution below and above the CMC. The micelles of MeO-PEGO-Succ-RSV were formed spontaneously after dispersing in water.

[8] = DPPH inhibition assay (in vitro antioxidant); assay type: biochemical; conditions: DPPH 1 x 10^-4M in methanol, 30 min, room temperature
Protocol: Final concentration of DPPH was maintained at 1 x 10^-4M. […] After 30 min incubation at room temperature, the absorbance of these solutions was determined at 518 nm using a Hewlett Packard 8452A, UV-VIS spectrophotometer (Waldbronn, Germany). […] The IC 50 values were determined from the plot of % DPPH remaining against concentration of RSV and its equivalent conjugates.

[9] = male, Wistar, rat, plasma, mean ± SD

Time within which almost all was metabolized [1]: ≤ 10 min | Plasma concentration after two hours [2]: below the limit of detection | CL ([2]; mean ± SD): 335 ± 140 mL/min/kg | AUC(0-inf) [2, 9]: 2.4 ± 0.7 µM·h | MRT [2, 9]: 1.3 ± 1 h | Vd ([2]; male, Wistar, rat, plasma, mean ± SD, read-out: Vss): 26.8 ± 19.1 L/kg | half-life ([2]; male, Wistar, rat, plasma, mean ± SD, read-out: t½ (converted)): 1.4 ± 0.9 h | clearance ([2]; male, Wistar, rat, plasma, iv, mean ± SD): 333 mL/min/kg
Compound: Oc1ccc(/C=C/c2cc(O)cc(O)c2)cc1 [Resveratrol, trans-Resveratrol]
CL (previous reports) [3]: 183 to 317 mL/min/kg | t½ (previous reports) [3]: 1.3 h

Compound: CN(C)c1ccc(/N=N/c2ccccc2)cc1 [dimethyl yellow]
Aqueous solubility [4]: 13 µg/mL

Compound: MeO-PEG succinyl ester resveratrol [MeO-PEGO-Succ-RSV 2 kDa]
% Conjugate Remaining at 24 hr pH 7.4 [5]: ~65% | Plasma t1/2 ([6]; rat plasma in vitro): <5 min | Intact conjugate detected by HPLC at initial time point ([6]; rat plasma, initial time point of 0 h): almost no intact polymer conjugate was detected | Behaviour in aqueous solution [7]: self-aggregated into polymeric micelles

Compound: α-methoxy poly(ethylene glycol)-co-polylactide succinyl ester resveratrol [MeO-PEG-PLAO-Succ-RSV 2 kDa]
IC 50 DPPH inhibition [8]: similar

Compound: α-methoxy-ω-carboxylic acid poly(ethylene glycol) succinylamide resveratrol [MeO-PEGN-Succ-RSV 2 kDa]
IC 50 DPPH inhibition [8]: similar
